The values below come from US20080279961A1, “TELOMERE TARGETING AGENTS AS STEM CELLS DIRECTED TREATMENTS” (priority 2007, published 2008).

Where “and” joins values, the source holds several entries; their conditions need not be identical. Equal values may be shown once. Entries after “also recorded” stand apart in the source; their conditions may differ. A value given as a limit tells only on which side of the number the result lay.

One assay concerns UXF1138L tumors. The assay is described as follows: atypical mitoses counted in xenograft sections. Format: in vivo, nude mice. Here is the method: Upon termination of the experiments, tumors from 3 mice per group were excised and immediately fixed in 10% PBS buffered formalin for 24 hours followed by routine paraffin embedding procedures (Burger et al. 2005).
Five-micrometer paraffin sections were cut, dewaxed, and antigen retrieval done in citrate buffer (pH 6.0) in the microwave for 30 minutes. Sections were then treated with methanol/3% hydrogen peroxide to remove endogenous peroxidase and blocked with 10% normal goat serum in PBS and stained. PBS was used as washing buffer. Cells were incubated overnight at 4° C. with a monoclonal anti-hTERT antibody (class IgG2a, kappa, Novacastra, Newcastle, UK) diluted 1:40 in PBS. Mouse immunoglobulin G2a isotype control (Santa Cruz) was used as negative control. hTERT-specific immunoperoxidase staining was developed using the DAKO Envision+ system (Envision 3,3V-diaminobenzidine Plus kit mouse, DAKO Cytomation). […] Sections were viewed and evaluated by two independent pathologists. Mean numbers of atypical mitoses were counted in control and treated tissues from 3 tumors (4 fields of 250 cells per tumor) for the 3 groups (Burger et al. 2005). Box plots were generated using SigmaPlot version 10 software and statistical significance between treatments calculated in SigmaPlot using the Student T-test.

The subject of assay [1] is normal monkey bone marrow stem cells. The assay is described as follows: methylcellulose colony growth of bone marrow stem cells. The conditions noted are these: low drug concentrations. Format: cell-based. Here is the method:
For the monkey bone marrow and the human cord blood, methylcellulose from StemCell Technologies (Vancouver) was used to grow the stem cells as colonies. […] Cancer tissues are composed of various cell types, tumor cells, stromal fibroblasts, blood vessels, inflammatory cells, and adipocytes, all of which can carry over into single cell suspensions that are seeded into soft agar after tissue digestion. To examine whether tumor stem cells secrete cytokines that support their growth of enforce differentiation, the expression of 6 cytokines found in the supernatant of clonogenic assays was evaluated. Ultrasensitive immunoassay procedures based on the ELISA (enzyme linked immuno absorbent assay) technology were employed for the measurement of VEGF, TNF-alpha, GMCSF, GCSF IL4 and IL6. The assays were performed by the Cytokine Laboratory in the VA Hospital at the University of Maryland Baltimore and data provided as optical density readouts that were converted relative to a standard into pg/ml absolute cytokine values. The IL4 and 6 measurements were all negative; however VEGF, TNF-alpha, GMCSF and GCSF yielded interesting and differential results between tumor and normal stem cells. While cytokine levels decreased after RHPS4 treatment in tumor stem cell assays, they increased in normal stem cell cultures.

Another assay deals with hTERT. Briefly: hTERT immunohistochemistry of xenograft tissue. Format: in vivo, human. The conditions noted are these: RHPS4 treated UXF1138L xenograft. Here is the method: Five-micrometer paraffin sections were cut, dewaxed, and antigen retrieval done in citrate buffer (pH 6.0) in the microwave for 30 minutes. Sections were then treated with methanol/3% hydrogen peroxide to remove endogenous peroxidase and blocked with 10% normal goat serum in PBS and stained. PBS was used as washing buffer. Cells were incubated overnight at 4° C. with a monoclonal anti-hTERT antibody (class IgG2a, kappa, Novacastra, Newcastle, UK) diluted 1:40 in PBS. Mouse immunoglobulin G2a isotype control (Santa Cruz) was used as negative control. hTERT-specific immunoperoxidase staining was developed using the DAKO Envision+ system (Envision 3,3V-diaminobenzidine Plus kit mouse, DAKO Cytomation). To enhance contrast, tissues were counterstained with hematoxylin. hTERT-specific staining intensity was documented using a Leica DM4000 microscope and digital camera. Sections were viewed and evaluated by two independent pathologists. Mean numbers of atypical mitoses were counted in control and treated tissues from 3 tumors (4 fields of 250 cells per tumor) for the 3 groups (Burger et al. 2005). Box plots were generated using SigmaPlot version 10 software and statistical significance between treatments calculated in SigmaPlot using the Student T-test.

Assay [2] relates to human cord blood mononuclear cells. The assay is described as follows: methylcellulose colony assay. Type of assay: cell-based. Here is the method: The UXF1138L uterus carcinoma cell line was originally established from a patient tumor by Prof. Heiner Fiebig at the University of Freiburg, Germany (Fiebig and Burger, 2001). All animal experiments were conducted under an animal license approved by the German Federal Government (Regierungspräsidium Freiburg) and in compliance with the UKCCCR guidelines on experimental neoplasia (Workman et al., 1998). Six to eight weeks old female thymus aplastic nude mice of NMRI genetic background were used for establishment and serial propagation of the human tumor xenograft from the cell line. PC3 and MCF-7 cells were obtained from American Type Culture Collection, Manassas, Va. The HEK293T human embryonic kidney cell line was a kind gift from Dr. Arun Seth, Sunnybrook Health Sciences Centre, Toronto, CA. Umbellical vein cord blood was freshly obtained from a hospital maternity ward with the consent of the respective patient, specimens were anonymized. The cord blood was collected into a BD Vacutainer CPT™ and the mononuclear fraction isolated by centrifugation following the manufacturers instructions.
In human tumor stem cell assay (HTCA)/clonogenic assay, single cell suspensions from in vivo studies above were washed in medium and passed through sieves and the resulting single cell suspensions seeded into soft agar (n=3 tumors per group) as described by us before (Fiebig et al., 2004). Single cell suspensions of cell lines were prepared by trypsinization from cells growing as monolayers on plastic. Briefly, 5,000 (HEK293T cells), 10,000 (PC3, MCF-7 and UXF1138L cells) or 50,000 (UXF1138L tumor tissue) vital cells were added to 0.2 ml Iscove's medium/20% fetal bovine serum/0.05% gentamycin containing 0.4% agar and plated on top of a base layer consisting of 0.2 ml medium with 0.75% agar. The next day, the agar layers were fed with Isocve's medium and cultures incubated at 37° C., 7% CO2 for approximately 11 days. Vital colonies were stained with 2-(4-iodophenyl)-3-(4-nitrophenyl)-5-phenyltetrazolium chloride (1 mg/ml) 24 hrs before evaluation, and colonies >70 μm were counted with an automated image analysis system (Omincon FAS IV, BIOSYS GmbH, Karben, Germany). Drug effect was assessed as growth inhibitory concentrations 50 and 70% (IC50, IC70). Methylcellulose was used to grow cord blood stem cells instead of soft agar. The seeding density was 20,000 cells/well. Stem cell growth factor supplemented and optimized methylcellulose (Methocult H4434) was purchased from Stem Cell Technologies (Vancouver, CA). Methylcellulose lacking growth factors was used as negative growth control. Statistical significance between treatment groups was evaluated by using the Student T-test. […]

Another assay relates to UXF1138L xenografts. Briefly: tumor growth inhibition of subcutaneous xenografts. Format: in vivo, nude mice.

On to `COS(=O)(=O)[O-].Cc1cc2c3c([n+](C)c4ccc(F)cc4c3c1)-c1cc(F)ccc1N2C` [RHPS4, 3,11-difluoro-6,8,13-trimethyl-8H-quino[4,3,2-kl]acridinium methosulfate], for which, in the assay with UXF1138L tumors (5 mg/kg/d p.o.), the “mitotic abnormalities compared to vehicle control” value is on record as “significant induction of mitotic abnormalities; also recorded: increase in mitotic abnormalities”. Also, the “atypical mitosis, mean number” value with UXF1138L tumors (UXF1138L tumors passage 4, control 0.35) is given as 1.25±0.19. Moreover, the “growth of normal monkey bone marrow stem cells” value in assay [1] is on record as “induces the growth”. Also, the “nuclear hTERT expression in xenograft tissue” value with hTERT is on record as “loss of strong nuclear hTERT expression”. The “stimulation of growth, number of colonies compared to vehicle” value in assay [2] (0.1 and 1 mircoM RHPS4, cord blood) is “doubling to tripling the number of colonies”. Besides, the “RHPS4 concentrations that inhibited colony formation” value in assay [2] (cord blood cells) is more than 1 mircoM. In addition, in assay [2] (cord blood colony forming units), the “drug concentration at which cell kill of normal stem cells was seen” value is reported as approximately 10 mircoM. The “least percentage (cut-off level) of growth induction” value in assay [2] (individual cord blood experiments, % of control growth) is listed as not below 150%. Further, in the assay on UXF1138L xenografts (Passage 3, day 28), the “tumor growth inhibition, maximal extent compared to control” value is listed as 33%. Besides, the entries for the “day of optimal Test/Control” value in the assay with UXF1138L xenografts (Passage #1), with UXF1138L xenografts (Passage #2) and in the assay with UXF1138L xenografts (Passage #4) were “(16) day”, “(7) day” and “(16) day”, respectively. In addition, the “opt. Test/Control [%]” value in the assay with UXF1138L xenografts (Passage #1, median tumor volume, 5 mg/kg p.o.) is 63%; in the assay with UXF1138L xenografts (Passage #2, median tumor volume, 5 mg/kg p.o.), 100%; in the assay with UXF1138L xenografts (Passage #3, median tumor volume, 5 mg/kg p.o., 5 mg/kg) it was 67% and 67.7%; in the assay on UXF1138L xenografts (Passage #4, RHPS4 5 mg/kg p.o. twice weekly, Paclitaxel 20 mg/kg i.v.) it was 62%. Also, in the assay with UXF1138L xenografts (Passage #4 UXF1138L xenografts), the “antitumor response in words” value was “only marginal growth inhibition”. In addition, the “oral single agent activity” value in the assay with UXF1138L xenografts (any of the 4 passages) was “did not show oral single agent activity”.
